Test results: US20230346883A1, “COMPOSITIONS FOR AND METHODS OF TREATMENT WITH MUTANT A1 ADENOSINE RECEPTOR PLASMID cDNAs” (Endacea, Inc., priority 2022, published 2023)

Test system: PC3 Tumors (Human Prostate Carcinoma)
Experiment: Treatment of PC3 xenograft tumors in athymic nude mice, tumor volume
Format: in vivo
Settings: dosed twice/week
Method: • 1. Animals: • 46 Athymic nude mice (ENVIGO, male, 5-6 weeks old, R #: 4269, PO #: 236172) were used in this study. All mice were ear tagged for identification purposes. • 2. Animal Husbandry: • Upon arrival, animals were examined to ensure that they were healthy. The animals were housed in autoclaved solid floor polycarbonate cages. Housing and sanitation were performed. All animal handling was performed in a laminar flow hood. Animals were housed in filter-topped cages within a HEPA filtered clean room. • 3. Cell Culture and Implantation: • PC3 cell line was obtained from American Type Culture Collection (Manassas, VA). The cells were cultured in 75 cm^2 flask containing Eagle's Minimum Essential Medium supplemented with 10% fetal bovine calf serum (FBS) and incubated at 37° C. in humidified atmosphere of 5% CO2. As cells became 80% confluent, cultures were expanded to 150 cm^2 flasks, and expanded further until sufficient cells were available for injection. • Cancer cells were subcutaneously injected into right flank, 10 million cells/each mouse for PC3 cells. • 4. Assignment to Treatment Groups: • The animals were ear tagged for identification purposes. The animals were assigned to 4 study groups with 10 mice in each group based upon tumor volume. • 5. The mice were dosed twice a week for 6 weeks.
The Paclitaxel was stored at ambient temperature. Lipid nanoparticle (LNP) suspensions were stored at 4° C. Unopened vials were maintained in their original container at 4° C. until ready for use. 50 μl of LNP treatment was drawn via large bore needle (16G needle) from vial. All LNP treatments were allowed to reach room temperature by standing at ambient temperature. There was no heating. The large bore needle was replaced with a small-bore needle (25G) for tumor injection. • 6. Tumor Monitoring: • The xenograft tumors were measured three times a week with a digital caliper. • Tumor volumes were calculated using the formula:
Tumor Volume=length×width×width×½ • 7. Statistical Analysis: • Tumor sizes and body weights were analyzed using Student's t-test. P values <0.05 were considered as statistically significant.

SMILES: CC(=O)O[C@H]1C(=O)[C@@]2(C)[C@H]([C@H](OC(=O)c3ccccc3)[C@]3(O)C[C@H](OC(=O)[C@H](O)[C@@H](NC(=O)c4ccccc4)c4ccccc4)C(C)=C1C3(C)C)[C@]1(OC(C)=O)CO[C@@H]1C[C@@H]2O [Paclitaxel]
- Average Tumor Volume (Mean) (therapy day 0): 108.0 Mm^3
- Average Tumor Volume (Mean) (therapy day 3): 105.7 Mm^3
- Average Tumor Volume (Mean) (therapy day 5): 111.7 Mm^3
- Average Tumor Volume (Mean) (therapy day 7): 129.6 Mm^3
- Average Tumor Volume (Mean) (therapy day 10): 108.4 Mm^3
- Average Tumor Volume (Mean) (therapy day 12): 98.1 Mm^3
- Average Tumor Volume (Mean) (therapy day 14): 84.2 Mm^3
- Average Tumor Volume (Mean) (therapy day 17): 66.6 Mm^3
- Average Tumor Volume (Mean) (therapy day 19): 61.8 Mm^3
- Average Tumor Volume (Mean) (therapy day 21): 56.6 Mm^3
- Average Tumor Volume (Mean) (therapy day 24): 48.7 Mm^3
- Average Tumor Volume (Mean) (therapy day 26): 34.6 Mm^3
- Average Tumor Volume (Mean) (therapy day 28): 31.1 Mm^3
- Average Tumor Volume (Mean) (therapy day 31): 26.6 Mm^3
- Average Tumor Volume (Mean) (therapy day 35): 25.3 Mm^3
- Average Tumor Volume (Mean) (therapy day 38): 24.4 Mm^3
- Average Tumor Volume (Mean) (therapy day 40): 24.2 Mm^3
- Average Tumor Volume (Mean) (therapy day 42): 27.2 Mm^3
- Average Tumor Volume (Mean) (therapy day 45): 17.8 Mm^3
